Data as given in patent publication US9133457B2, “Methods of incorporating amino acid analogs into proteins” (California Institute of Technology, priority 2004, dated 2015).
Where two headings read alike, the source gives them in different places.

Assays:
[1] = biological target: T1, E. coli leucyl-tRNA synthetase (LeuRS) (Escherichia coli, UniProt P07813); details: in vitro; cited from earlier work
T1 construct: endogenous in cells; host or cells: E. coli expression strain (Phe/Leu auxotroph) carrying ytRNAPheCAA and modified yeast PheRS
T1 sequence (P07813 whole entry): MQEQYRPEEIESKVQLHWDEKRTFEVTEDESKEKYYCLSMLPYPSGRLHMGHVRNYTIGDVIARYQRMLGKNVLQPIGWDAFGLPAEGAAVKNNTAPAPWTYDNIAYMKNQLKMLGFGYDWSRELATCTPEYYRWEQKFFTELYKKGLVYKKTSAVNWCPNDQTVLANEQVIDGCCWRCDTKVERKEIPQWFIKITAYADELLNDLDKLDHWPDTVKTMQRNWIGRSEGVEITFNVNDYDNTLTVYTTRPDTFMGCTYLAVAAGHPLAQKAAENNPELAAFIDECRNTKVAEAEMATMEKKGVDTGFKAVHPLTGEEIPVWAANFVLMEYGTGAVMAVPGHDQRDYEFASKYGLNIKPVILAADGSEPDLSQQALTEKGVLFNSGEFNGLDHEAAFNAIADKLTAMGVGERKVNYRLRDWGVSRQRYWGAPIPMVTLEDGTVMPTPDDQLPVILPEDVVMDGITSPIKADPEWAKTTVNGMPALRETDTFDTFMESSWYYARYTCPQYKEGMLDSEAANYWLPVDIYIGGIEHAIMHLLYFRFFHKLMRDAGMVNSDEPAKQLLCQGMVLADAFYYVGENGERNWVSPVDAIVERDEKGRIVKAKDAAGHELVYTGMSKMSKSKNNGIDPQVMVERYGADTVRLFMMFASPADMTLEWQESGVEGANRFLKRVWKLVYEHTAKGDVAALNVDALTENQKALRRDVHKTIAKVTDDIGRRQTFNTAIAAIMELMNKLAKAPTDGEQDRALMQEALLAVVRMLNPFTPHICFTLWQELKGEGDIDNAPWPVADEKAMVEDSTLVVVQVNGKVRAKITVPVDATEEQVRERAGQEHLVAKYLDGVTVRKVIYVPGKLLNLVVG

[2] = biological target: T1, E. coli leucyl-tRNA synthetase (LeuRS); assay: incorporation of Nal into mDHFR at Leu codon UUG, effect of LeuRS inhibitor; type: cell-based
From the text: In this example, multiple-site-specific incorporation of an unnatural amino acid into murine dihydrofolate reductase (mDHFR) in response to a sense codon was realized by use of an E. coli strain outfitted with a yeast transfer RNA (ytRNA^pheCAA) capable of Watson-Crick base-pairing with the leucine (Leu) codon UUG. ytRNA^pheCAA was charged with L-3-(2-naphthyl)alanine (Nal) by a co-expressed modified yeast phenylalanine tRNA synthetase. See schematic diagram in FIG. 3.
Incomplete occupancy of the UUG codon by Nal is due at least in part to competition with leucine-charged E. coli tRNA^Leus. In an attempt to reduce competition by E. coli tRNA^Leus, use of a mutant E. coli strain lacking tRNA^LeuCAA and addition of an E. coli leucyl-tRNA synthetase (LeuRS) inhibitor were tested. A Phe/Leu double auxotrophic strain derived from the tRNA^LeuCAA-deficient strain XA106 (CGSC at Yale) was tested for incorporation of Nal at the UUG codon.
Replacement of Leu by Nal was detected in MALDI mass spectra of tryptic fragments of mDHFR (FIG. 4). […] Furthermore, Nal incorporation was not detected when UUG was mutated to UUA in Peptide 3. No signal corresponding to Peptide 4CUG (Nal) was detected, whereas that corresponding to Peptide 4CUG was detected at 904.54 mass units. […]

[3] = biological target: T2, mu-yPheRS (modified yeast PheRS, Thr415Gly) (Saccharomyces cerevisiae, UniProt P15625, T415G); assay: adenosine triphosphate-pyrophosphate exchange assay (amino acid activation); type: biochemical; details: larger than Phe
T2 construct: made in house
T2 sequence (P15624 whole entry): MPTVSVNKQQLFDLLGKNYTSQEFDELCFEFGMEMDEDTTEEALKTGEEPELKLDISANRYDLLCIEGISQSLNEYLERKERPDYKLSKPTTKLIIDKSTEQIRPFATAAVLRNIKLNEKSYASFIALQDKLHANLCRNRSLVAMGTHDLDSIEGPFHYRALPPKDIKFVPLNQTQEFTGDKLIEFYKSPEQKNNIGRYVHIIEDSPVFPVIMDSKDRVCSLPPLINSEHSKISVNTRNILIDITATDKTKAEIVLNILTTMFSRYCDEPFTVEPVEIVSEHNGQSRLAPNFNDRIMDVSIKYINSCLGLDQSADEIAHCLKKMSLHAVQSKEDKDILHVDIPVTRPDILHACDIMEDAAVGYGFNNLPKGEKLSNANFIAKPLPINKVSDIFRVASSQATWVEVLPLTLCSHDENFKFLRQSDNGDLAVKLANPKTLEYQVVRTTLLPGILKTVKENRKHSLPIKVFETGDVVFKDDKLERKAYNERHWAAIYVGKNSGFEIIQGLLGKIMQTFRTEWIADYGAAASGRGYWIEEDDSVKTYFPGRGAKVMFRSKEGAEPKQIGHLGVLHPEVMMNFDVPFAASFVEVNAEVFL
T2 sequence (P15625 whole entry T415G): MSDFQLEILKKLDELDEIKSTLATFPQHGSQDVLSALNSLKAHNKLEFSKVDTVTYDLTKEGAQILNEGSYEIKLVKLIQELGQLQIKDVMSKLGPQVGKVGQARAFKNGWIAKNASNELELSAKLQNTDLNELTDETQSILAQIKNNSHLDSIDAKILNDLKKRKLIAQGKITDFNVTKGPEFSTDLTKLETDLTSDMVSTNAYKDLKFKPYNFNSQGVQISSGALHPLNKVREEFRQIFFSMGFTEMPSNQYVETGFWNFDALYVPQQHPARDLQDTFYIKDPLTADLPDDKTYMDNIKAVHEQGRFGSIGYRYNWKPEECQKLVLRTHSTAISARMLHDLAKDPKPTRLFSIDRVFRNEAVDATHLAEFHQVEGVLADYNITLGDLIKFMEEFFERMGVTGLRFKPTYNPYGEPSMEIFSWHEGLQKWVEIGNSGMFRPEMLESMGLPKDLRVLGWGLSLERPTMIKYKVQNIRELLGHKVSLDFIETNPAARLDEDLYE
Description: The modified yeast PheRS (mu-yPheRS) was prepared by introduction of a Thr415Gly mutation in the α-subunit of the synthetase (Datta el al., J. Am. Chem. Soc. 124: 5652, 2002). The kinetics of activation of Nal and Phe by mu-yPheRS were analyzed in vitro via the adenosine triphosphate-pyrophosphate exchange assay.

[4] = tested on: E. coli strain (K10-F6); assay: incorporation of Nal into mDHFR at Phe codons UUU/UUC (amino acid analysis, MALDI of tryptic digests); type: cell-based
Description: In this construct, four of the Phe residues of mDHFR are encoded by UUC codons, five by UUU. A full-length copy of the mu-yPheRS gene, under control of a constitutive tac promoter, was inserted into pQE16. […] E. coli transformants harboring these two plasmids were incubated in Phe-depleted minimal medium supplemented with 3 mM Nal and were then treated with 1 mM IPTG to induce expression of mDHFR. Although the E. coli strain (K10-F6) used in this study is a Phe auxotroph, (see Furter, supra) a detectable level of mDHFR was expressed even under conditions of nominal depletion of Phe, probably because of release of Phe through turnover of cellular proteins. In negative control experiments, mDHFR was expressed in the absence of either ytRNA^PheAAA or mu-yPheRS. […] For mDHFR isolated from the strain harboring the heterologous pair, amino acid analysis indicated replacement of 4.4 of the 9 Phe residues by Nal.
Tryptic digests of mDHFR were analyzed to determine the occupancy of individual Phe sites. Peptide 1UUU (residues 184-191, […], SEQ ID NO: 1) contains a Phe residue encoded as UUU, whereas peptides 2UUC (residues 62-70, […], SEQ ID NO: 2) and 3UUC (residues 26-39, […], SEQ ID NO: 3) each contain a Phe residue encoded as UUC. In the absence of Nal, peptide 1UUU was detected with a monoisotopic mass of 1105.55 Da, in accord with its theoretical mass (FIG. 2A). […] As described earlier, each substitution of Nal for Phe leads to a mass increase of 50.06 Da; the observed shift in mass is thus consistent with replacement of Phe by Nal in response to the UUU codon. Liquid chromatography-tandem mass spectrometry (LC/MS/MS) confirmed this assignment.
Similar analyses were conducted for peptides 2UUC and 3UUC. In the absence of added Nal, the observed masses of peptides 2UUC and 3UUC are 1135.61 (FIG. 2A) and 1682.89 Da (FIG. 2D), respectively, as expected. […] Nal incorporation thus appears to be rare at UUC codons under the conditions used here for protein expression.
There is at least a formal possibility that the observed codon-biased incorporation of Nal might be dependent on codon context rather than, or in addition to, codon identity. MALDI sampling errors are also possible. To test these possibilities, a mutant mDHFR gene was prepared by mutating the UUU codon in peptide 1UUU to UUC, and the UUC codon in peptide 3UUC to UUU. In the resulting peptide 1UUC, the signal indicating incorporation of Nal was only slightly above background (FIG. 2C), whereas for peptide 3UUU, Nal is readily detected (FIG. 2F). Nal incorporation is unambiguously codon-biased to UUU.

[5] = tested on: Escherichia coli; details: cited from earlier work
[6] = cited from earlier work
[7] = degree similar to Ceredase; cited from earlier work
[8] = modified using conventional amine-PEGylation; cited from earlier work

CN(C)CC(N)C(=O)O (racemic) [AZL, 4-Aza-DL-leucine]
inhibition of E. coli LeuRS [1]: competitive inhibitor
effect on occupancy of the UUG codon by Nal ([2]; 1 mM AZL in the media): enhanced occupancy

N[C@@H](Cc1ccc2ccccc2c1)C(=O)O [Nal, L-3-(2-naphthyl)alanine]
specificity constant relative to that for Phe [3]: 8 fold
Nal incorporation at the UUU codon ([4]; MALDI signal intensities, peptide 1UUU): dominant
Nal incorporation at UUC codons ([4]; MALDI, peptides 2UUC and 3UUC): rare
Phe residues of mDHFR replaced by Nal ([4]; of the 9 Phe residues, strain harboring ytRNA^PheAAA and mu-yPheRS, 3 mM Nal, amino acid analysis): 4.4
incorporation of Nal into mDHFR ([4]; without ytRNA^PheAAA or mu-yPheRS, amino acid analysis): no incorporation
re-assignment of the UUG codon to Nal ([2]; ytRNA^PheCAA and modified yeast PheRS, mass spectrometry of tryptic digests): partially re-assigned

CC1(C)S[C@@H]2[C@H](NC(=O)[C@H](N)c3ccccc3)C(=O)N2[C@H]1C(=O)O [ampicillin]
IC50 of cells ([5]; SctRNAGlnCUA coexpressed with ScGlnRS): about 500 μg/mL
IC50 of cells ([5]; only SctRNAGlnCUA expressed): 20 mg/L

B1: Cerezyme: recombinant analogue of the human enzyme β-Glucocerebrosidase, imiglucerase for injection (protein, UniProt P04062 40-536, looked up, variant R495H)
Lysosomal acid …: ARPCIPKSFGYSSVVCVCNATYCDSFDPPTFPALGTFSRYESTRSGRRMELSMGPIQANHTGTGLLLTLQPEQKFQKVKGFGGAMTDAAALNILALSPPAQNLLLKSYFSEEGIGYNIIRVPMASCDFSIRTYTYADTPDDFQLHNFSLPEEDTKLKIPLIHRALQLAQRPVSLLASPWTSPTWLKTNGAVNGKGSLKGQPGDIYHQTWARYFVKFLDAYAEHKLQFWAVTAENEPSAGLLSGYPFQCLGFTPEHQRDFIARDLGPTLANSTHHNVRLLMLDDQRLLLPHWAKVVLTDPEAAKYVHGIAVHWYLDFLAPAKATLGETHRLFPNTMLFASEACVGSKFWEQSVRLGSWDRGMQYSHSIITNLLYHVVGWTDWNLALNPEGGPNWVRNFVDSPIIVDITKDTFYKQPMFYHLGHFSKFIPEGSQRVGLVASQKNDLDAVALMHPDGSAVVVVLNRSSKDVPLTIKDPAVGFLETISPGYSIHTYLWHRQ
modifications: imiglucerase
notes: recombinant analogue of the human enzyme β-Glucocerebrosidase, imiglucerase for injection
time to steady-state enzymatic activity ([6]; during one-hour intravenous infusions): ≤ 30 min
plasma clearance, mean±S.D. ([6]; in vivo): 0.87 ± 0.24 L/h/kg
volume of distribution corrected for weight, mean±S.D. ([6]; in vivo): 0.12 ± 0.02 L/kg
clinical effect [7]: improved anemia and thrombocytopenia, reduced spleen and liver size, and decreased cachexia

B2: GCSF: GCSF modified using conventional amine-PEGylation technologies (conjugate, UniProt P09919 31-207, looked up)
Granulocyte …: TPLGPASSLPQSFLLKCLEQVRKIQGDGAALQEKLVSECATYKLCHPEELVLLGHSLGIPWAPLSSCPSQALQLAGCLSQLHSGLFLYQGLLQALEGISPELGPTLDTLQLDVADFATTIWQQMEELGMAPALQPTQGAMPAFASAFQRRAGGVLVASHLQSFLEVSYRVLRHLAQP
modifications: amine PEGylation
notes: GCSF modified using conventional amine-PEGylation technologies
reduction of bioactivity [8]: 1,000 fold
